Measured values reported in patent US20240025871A1, “METHODS AND SYSTEMS FOR PRODUCTION OF FURFURAL” (SHELL OIL COMPANY, priority 2020, published 2024).
Several values for one entry are separate records, joined by “and”; a condition that tells them apart may be missing. Equal values may be shown once. Read-outs that look alike come from different tables or passages of the source.

Tests used:
[1] = cited from earlier work
[2] = octanol-water; water-soluble solvents, Table 3; cited from earlier work
[3] = Partition of components between water+sulfolane phase and methylnaphthalene phase after dehydration reaction; assay type: physicochemical; conditions: room temperature; for [Conc]water+S: concentration in aqueous (water+sulfolane) phase; for [conc]MN: concentration in methylnaphthalene phase; for wt. %water+S: content in aqueous (water+sulfolane) phase; for wt. %MN: content in methylnaphthalene phase; for Pmol: ratio of absolute amounts polar/apolar phase, polar phase volume twice the apolar
[4] = water-insoluble solvents, Table 2
[5] = water-insoluble boronic acids, Table 1

In the case of `CCc1ccc(O)cc1` [4Et-phenol], the “Water solubility g/L (20° C.)” value [1, 4] is given as 6.1 g/L.
For `COCCOCCOC` [Diglyme], the LogP [2] is given as −0.8.
In the case of `O=Cc1ccco1` [Furfural], the “[Conc]water+S” value [3] is reported as 103 mM, the “[conc]MN” value [3] is reported as 144 mM and the “wt. %water+S” value [3] is reported as 0.88 wt. %. For the same compound, the “wt. %water+S” value ([3]; listed as furfural) was under 1 wt. %, the “wt. %MN” value [3] was 1.3 wt. % and the Pmol [3] was 1.43. For the same compound, the “share of overall furfural produced contained in non-aqueous MN-rich phase” value [3] was 41%.
For `O=C1CCCO1` [gamma butyrolactone], the LogP [2] is listed as −0.76.
In the case of `Cc1ccccc1B(O)O` [o-tolylboronic acid], the “Water solubility g/L (20° C.)” value [1, 5] is given as “Slightly”.
In the case of `CCCCCCCCB(O)O` [octylboronic acid], the “Water solubility g/L (20° C.)” value [1, 5] is listed as “Insoluble” and the “water solubility (in words)” value [1] is listed as “water-insoluble”.
In the case of `c1ccc2occc2c1` [Benzofuran], the “Water solubility g/L (20° C.)” value [1, 4] is listed as “insoluble”.
For `CCCCc1ccc(B(O)O)cc1` [4-butylphenyl boronic acid], the “Water solubility g/L (20° C.)” value [1, 5] is given as “Insoluble”.
For `OB(O)c1ccccc1` [phenylboronic acid], the “[Conc]water+S” value [3] was 125 mM, the “[conc]MN” value [3] was 340 mM and the “wt. %water+S” value ([3]; listed as PBA) was < 1.3 wt. % and 1.3 wt. %. For the same compound, the “wt. %MN” value [3] was 3.7 wt. % and the Pmol [3] was 0.74.
With `O` [water] the “[Conc]water+S” value [3] was 27,600 mM, the “[conc]MN” value [3] was 92 mM and the “wt. %water+S” value [3] was 44 wt. %. For the same compound, the “wt. %MN” value [3] was 0.15 wt. % and the Pmol [3] was 601.
With `O=S1(=O)CCCC1` [sulfolane] the “[Conc]water+S” value [3] was 5,100 mM, the “[conc]MN” value [3] was 370 mM and the “wt. %water+S” value [3] was 54 wt. %. The “wt. %MN” value [3] was 4 wt. %, the “wt. %MN” value ([3]; listed as Sulfolane) was 4.0 wt. % and the Pmol [3] was 13.8.
For `CC1CCC(=O)O1` (centres unmarked) [gamma valerolactone], the LogP [2] is listed as −0.27.
For `Cc1cccc2ccccc12` [1-methylnaphtalene], the “[Conc]water+S” value [3] was 3 mM, the “[conc]MN” value [3] was 7,000 mM and the “wt. %water+S” value ([3]; listed as 1-MN) was 0.04 wt. %. The “wt. %water+S” value ([3]; listed as MN) was under 0.1 wt. %, the “wt. %MN” value [3] was 91 wt. % and the Pmol [3] was 0.0009. The “Water solubility g/L (20° C.)” value [1, 4] was 0.026 g/L.
In the case of `CN1CCCC1=O` [nMe-pyrrolidone], the LogP [2] is given as −0.4.
In the case of `CC(C)(C)c1ccc(B(O)O)cc1` [4-tert-Butylphenyl boronic acid], the “Water solubility g/L (20° C.)” value [1, 5] is listed as “Insoluble”.
